SMILES | melting point
Oc1ccc(-c2ncnc(C(F)(F)F)c2Cl)cc1 | 149 to 151 °C
CN1CCC(=O)N(c2cccc(Cl)c2Cl)C1=O | 163 to 165 °C
CC(Oc1ccc(O)cc1)C(=O)Nc1ccc(OC(F)(F)F)cc1 (stereo not given) | 74.5 to 75 °C
COC(=O)C1=C(C)NC(N)=C(C(=O)OC(C)C)C1c1ccccc1C#N (stereo not given) | 211 °C
O=C(NCCNCc1cc2ccc(O)cc2o1)C12CC3CC(CC(C3)C1)C2 | 136 to 139 °C
COCc1nc(N)nc(N)c1-c1cc(Cl)cc(Cl)c1 | 228 to 230 °C
O=C1C(=O)c2ccc(-c3ccccc3)cc2C2=C1SCC1(CCN(CC(O)COc3ccc(F)cc3)CC1)O2 (stereo not given) | 173 to 175 °C
CC(=O)NCc1ccc(C(C)N2CCN(c3ccc(F)cc3)CC2)cc1 (stereo not given) | 128 to 130 °C
CC1=C(c2cccc(C(F)(F)F)c2)n2ncc3c(=O)[nH]c(=S)n(c32)C1 | 269 to 271 °C
Cc1nc2ccnn2c2c1CCN2Cc1ccccc1 | 130 °C
CC(C)Sc1nc2c(cc1C#N)C(=O)CC(C)(C)C2 | 135 to 136 °C
CN1CCC(=C2c3ccc(F)cc3Sc3ccc(F)cc32)CC1 | 120 to 123 °C
Cc1cc(N)c([N+](=O)[O-])cc1NCCO | 141 °C
O=C(O)c1ccc(C(Cl)=C(Cl)Cl)cn1 | 158 to 159 °C
CC1(C)CC(n2cncc2C(=O)O)c2ccccc2O1 (stereo not given) | 246 °C
Cc1ccc([C@@H]2c3c(C)c(N4C(=O)CC(c5ccc(F)cc5)CC4=O)c(C)c(C)c3OC2(C)C)cc1 | 151 to 154 °C
Cc1cc(-c2c[nH]cc2C#N)c(Cl)cc1F | 132 to 133 °C
Cn1c(Oc2ccc(Cl)c(F)c2)nc2c(-c3cccc(C(=O)O)c3)cccc21 | 283 to 284 °C
CCOC(=O)C=CC(=O)c1ccc(Oc2ccc(Cl)cc2)cc1 | 57 to 58 °C
Fc1cccc2c1[nH]c1c2ccc2cc[nH]c21 | > 250 °C

SMILES | melting point
O=C(NC1CC1)c1cccc(-c2ccc3c(c2)C(Oc2ccc(Cl)cc2Cl)CC3)c1 (stereo not given) | 179 to 180 °C
O=C1C2C3C=CC(CC3)C2S(=O)(=O)N1CCCCBr (stereo not given) | 118 to 122 °C
CC1=C(C(=O)OCCN(C)Cc2ccccc2)C(c2ccccc2C(F)(F)F)c2c(ccnc2OCC(C)C)N1 (stereo not given) | 148 to 150 °C
N#Cc1cc(C2=NOC(c3cc(Cl)cc(Cl)c3)(C(F)(F)F)C2)ccc1-n1cccn1 (stereo not given) | 169 to 176 °C
O=C(O)c1cn(C2CC2)c2nc(-c3cc4c(s3)CCC/C4=N\O)c(F)cc2c1=O | > 300 °C
COC(=O)c1sc2ccc(C#N)cc2c1N | 248 °C
CC(C)C1(C)NC(c2nccc(O)c2C(=O)O)=NC1=O (stereo not given) | 210 to 211 °C
CCNc1nc(Nc2ccccc2C)c2ccccc2n1 | 127 to 129 °C
Cn1nc(-c2c(F)cccc2Cl)nc1-c1cccc([N+](=O)[O-])c1Cl | 112 to 114 °C
CCOc1cc(C(=O)O)cc(N)c1C(=O)c1ccccc1 | 230 °C
CC12CCC(C(=O)CC1=O)C2(C)C (stereo not given) | 220 °C
CS(=O)(=O)c1ccc(-c2cnn(-c3ccc(F)cc3)c(=O)c2OCC2CC2)cc1 | 166 to 167 °C
Cc1ccc(S(=O)(=O)NCCCCOc2ccc(-n3cnnn3)cc2)cc1 | 127 to 128 °C
CS(=O)(=O)c1ccc(C2=C(c3ccccc3)C(=O)OC23CCC3)cc1 | 159 to 160 °C
CC(CO)NC(=O)c1ccc(CN(C2CCCCC2F)S(=O)(=O)c2ccc(Cl)cc2)c(F)c1F (stereo not given) | 126 to 128 °C
CN1C(=O)CCC(C)(C)c2cc(Nc3ncc(Cl)c(Nc4ccccc4-n4cccn4)n3)ccc21 | 136 to 138 °C
CCOC(=O)C1=C(C)N2CCNC2=C(C(=O)OCC)C1c1cccc2ccccc12 (stereo not given) | 169 to 170 °C
CCC1c2cccn2-c2ccc(Cl)cc2N1S(=O)(=O)c1ccc(O)c(C)c1 (stereo not given) | 170 to 172 °C
CC1(C)CCC(C)(C)C1OS(C)(=O)=O | 46 °C
Cc1nc(Nc2cccc(C(F)(F)F)c2)c2ccccc2c1Cc1ccc(Cl)nc1 | 137 °C

Reference: a melting point compilation (Tetko et al.; mined from patent text by program, amines drawn as free bases though some values may be those of a salt)
